Consider one sequence from publication PMC11969024, “Development of chemokine network inhibitors using combinatorial saturation mutagenesis” (Communications Biology, 2025).

This test has as its system J:CXCR1 cells (Jurkat cells stably transfected with CXCR1). Briefly: J:CXCR1 cell migration induced by CXCL6, inhibition by peptide. It is filed as cell-based, human. The note with it: peptide 10 uM; CXCL6 at EC80; Dunnett's test. The procedure: Cell lines were confirmed mycoplasma free by monthly testing using a MycoAlert^TM kit (LT07-118, Lonza) following the manufacturer’s instructions. THP1 cells: THP1 cells (ECACC 88081201, a human monocyte leukemia cell line[51]) were obtained from ECACC and were cultured in T175 flasks at 0.3-1 × 10^6 cells/mL in Roswell Park Memorial Institute (RPMI) 1640 medium (R0883, Sigma) with 10% FBS (F9665, Sigma) and 5mM L-glutamine (G7513, Sigma), 37 °C, 5% CO2. J:CXCR1 cells: The J:CXCR1 cell line was cultured in the same manner as THP1 cells at 0.15-1 × 10^6 cells per mL[37]. Activated T-cells: T-cells were isolated, activated and expanded as follows. Briefly, density gradient centrifugation using Lymphoprep^TM density gradient medium (07801, […] Technologies) and a SepMate^TM isolation tube (85450, […] Technologies) was used to isolate peripheral blood mononuclear cells from human leukocyte cones. Two rounds of purification using a human CD8 + T-cell isolation kit (480011, BioLegend) were used to isolate CD8 + T-cells from peripheral blood mononuclear cells. Activation of CD8 + T-cells was performed in ImmunoCult^TM-XF T-cell expansion medium (10982, […] Technologies) with an anti-CD3/anti-CD28 T-cell activator at 25 μl/ml (10991, […] Technologies), supplemented with 10 ng/ml recombinant human IL-2 (200-02, PeproTech) with 1% penicillin/streptomycin. […] The final pellet was resuspended in 1 mL of MACS buffer per 5 mL of initial blood volume and counted using cell size FSC-H/SSC-H parameters with gate settings previously defined by immunostaining (see below). […]
Cell counts were determined using an ATTUNE NxT Flow Cytometer with Cytkick autosampler (ThermoFisher), based on cell size parameters FSC-H/SSC-H, with previously defined gate settings. FSC-H/SSC-H gate settings for primary white blood cells from buffy coats were determined using flow cytometry to establish the granulocyte, monocyte and lymphocyte populations (Supplementary Fig. 13). […]

Take “EEDDYWAYAPLTCYFT [HD2T6W, HD2 point mutant]”: the “inhibition of CXCL6-induced migration of J:CXCR1 cells compared to parental HD2” value is listed as “significant improvement in inhibition”.
